Measurements published in PubChem BioAssay AID256 (DTP/NCI, 2004).
Where “and” joins values, the source holds several entries; their conditions need not be identical. Equal values may be shown once. Inconclusive results and toxic doses are left out. Rule for the calls: active = survival T/C of 150% or more; inactive = T/C below 125% in these data.

System: CD2F1 mice, L1210 leukemia ip, survival T/C
Test: NCI In Vivo Anticancer Drug Screen. Data for tumor model L1210 Leukemia (intraperitoneal) in CD2F1 (CDF1) mice
Conditions: endpoint: mean survival time, higher = longer survival
Summary of the method: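 Compound-dosed mice with transplantable tumor versus matched vehicle controls; endpoint ratio T/C reported.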

[1] = dose: 100.0 mg/kg/injection, schedule: Q04DX003 (ip), vehicle: saline with Tween-80
[2] = dose: 200.0 mg/kg/injection, schedule: Q04DX003 (ip), vehicle: saline with Tween-80
[3] = dose: 400.0 mg/kg/injection, schedule: Q04DX003 (ip), vehicle: saline with Tween-80
[4] = dose: 200.0 mg/kg/injection, schedule: Q01DX001 (ip), vehicle: saline
[5] = dose: 400.0 mg/kg/injection, schedule: Q01DX001 (ip), vehicle: saline
[6] = dose: 50.0 mg/kg/injection, schedule: Q01DX009 (ip), vehicle: saline
[7] = dose: 100.0 mg/kg/injection, schedule: Q01DX009 (ip), vehicle: saline
[8] = dose: 200.0 mg/kg/injection, schedule: Q01DX009 (ip), vehicle: saline

Measured: T/C

CC(CP(=O)(c1ccccc1)c1ccccc1)C(=O)O (stereo unspecified)
inactive: [1] 92 % of control | [2] 95 % of control | [3] 101 % of control

CCOC(=O)Cn1c(=O)cc(C)c2ccccc21
inactive: [1] 100 % of control | [2] 101 % of control | [3] 101 % of control

C=CCC(Cl)(C(=O)OC)C(=O)OC
inactive: dose: 100.0 mg/kg/injection, schedule: Q01DX009 (ip), vehicle: saline with Tween-80 108 % of control | dose: 200.0 mg/kg/injection, schedule: Q01DX009 (ip), vehicle: saline with Tween-80 108 % of control | dose: 400.0 mg/kg/injection, schedule: Q01DX009 (ip), vehicle: saline with Tween-80 106 % of control

Nc1nc(=O)c2[nH]cnc2n1O
inactive: dose: 12.5 mg/kg/injection, schedule: Q04DX003 (ip), vehicle: acetone 97 % of control | dose: 16.5 mg/kg/injection, schedule: Q01DX009 (ip), vehicle: saline 102 % of control | dose: 25.0 mg/kg/injection, schedule: Q01DX009 (ip), vehicle: saline 102 % of control | dose: 25.0 mg/kg/injection, schedule: Q04DX003 (ip), vehicle: acetone 94 % of control | dose: 50.0 mg/kg/injection, schedule: Q04DX003 (ip), vehicle: acetone 97 % of control | dose: 55.0 mg/kg/injection, schedule: Q01DX009 (ip), vehicle: saline 118 % of control

O=C(O)C(=O)O.O=C(O)C(=O)O.[Th]
inactive: [4] 95 % of control | [5] 97 % of control

CCOC(=O)/C=C(\C)Nc1cccc(NC(C)=O)c1
inactive: dose: 12.5 mg/kg/injection, schedule: Q01DX009 (ip), vehicle: other 97 % of control | dose: 25.0 mg/kg/injection, schedule: Q01DX009 (ip), vehicle: other 91 % of control | dose: 50.0 mg/kg/injection, schedule: Q01DX009 (ip), vehicle: other 91 % of control | dose: 100.0 mg/kg/injection, schedule: Q01DX009 (ip), vehicle: other 100 % of control | dose: 200.0 mg/kg/injection, schedule: Q01DX009 (ip), vehicle: other 91 % of control

O=C(Nc1ccccc1)Oc1ccc2ccccc2c1
inactive: dose: 100.0 mg/kg/injection, schedule: Q01DX001 (ip), vehicle: saline 96 % of control | [4] 94 % of control | [5] 97 % of control

O=C(O)CP(=O)(O)O
inactive: dose: 4.0 mg/kg/injection, schedule: Q01DX009 (ip), vehicle: saline 98 % of control | dose: 8.0 mg/kg/injection, schedule: Q01DX009 (ip), vehicle: saline 96 % of control | dose: 16.0 mg/kg/injection, schedule: Q01DX009 (ip), vehicle: saline 104 % of control | dose: 32.0 mg/kg/injection, schedule: Q01DX009 (ip), vehicle: saline 98 % of control | dose: 37.5 mg/kg/injection, schedule: Q01DX009 (ip), vehicle: saline 91 % of control | [6] 95 % of control and 103 % of control | dose: 64.0 mg/kg/injection, schedule: Q01DX009 (ip), vehicle: saline 103 % of control | dose: 75.0 mg/kg/injection, schedule: Q01DX009 (ip), vehicle: saline 102 % of control | [7] 98 % of control and 102 % of control | dose: 128.0 mg/kg/injection, schedule: Q01DX009 (ip), vehicle: saline 86 % of control | dose: 150.0 mg/kg/injection, schedule: Q01DX009 (ip), vehicle: saline 100 % of control | [8] 97 % of control and 102 % of control | dose: 400.0 mg/kg/injection, schedule: Q01DX009 (ip), vehicle: saline 98 % of control and 101 % of control | dose: 800.0 mg/kg/injection, schedule: Q01DX009 (ip), vehicle: saline 93 % of control and 103 % of control

Nc1ccccc1Nc1ccncc1
inactive: dose: 25.0 mg/kg/injection, schedule: Q01DX009 (ip), vehicle: saline with Tween-80 100 % of control | dose: 50.0 mg/kg/injection, schedule: Q01DX009 (ip), vehicle: saline with Tween-80 101 % of control | [1] 91 % of control

CC(=O)c1ccc2c(c1)-c1ccc(C(C)=O)cc1-2
inactive: [1] 86 % of control | [2] 86 % of control | [3] 90 % of control

CCC(C(=O)OCCNC1CCCCC1)c1ccccc1 (stereo unspecified)
inactive: dose: 75.0 mg/kg/injection, schedule: Q01DX001 (ip), vehicle: saline 110 % of control

C(/C=C/c1ccccc1)=Nc1ccc(CCc2ccc(N=C/C=C/c3ccccc3)cc2)cc1
inactive: dose: 100.0 mg/kg/injection, schedule: Q01DX001 (ip), vehicle: saline with Tween-80 103 % of control | dose: 200.0 mg/kg/injection, schedule: Q01DX001 (ip), vehicle: saline with Tween-80 93 % of control | dose: 400.0 mg/kg/injection, schedule: Q01DX001 (ip), vehicle: saline with Tween-80 91 % of control

C=C(c1ccccc1)c1ccc(N(C)C)cc1
inactive: [1] 100 % of control | [2] 91 % of control | [3] 95 % of control

CNC(=O)Nc1cc(C)ccc1OC
inactive: [6] 106 % of control | [7] 101 % of control | [8] 107 % of control

Clc1cccc(-c2cc(-c3ccccc3)[nH]n2)c1
inactive: dose: 100.0 mg/kg/injection, schedule: Q01DX001 (ip), vehicle: saline sonified 95 % of control | dose: 200.0 mg/kg/injection, schedule: Q01DX001 (ip), vehicle: saline sonified 97 % of control | dose: 400.0 mg/kg/injection, schedule: Q01DX001 (ip), vehicle: saline sonified 97 % of control

COC(=O)c1[nH]cnc1/N=N/N(C)C.[Cl][Cu][Cl]
inactive: dose: 2.5 mg/kg/injection, schedule: Q01DX001 (ip), vehicle: saline 98 % of control | dose: 5.0 mg/kg/injection, schedule: Q01DX001 (ip), vehicle: saline 92 % of control | dose: 10.0 mg/kg/injection, schedule: Q01DX001 (ip), vehicle: saline 88 % of control and 96 % of control | dose: 20.0 mg/kg/injection, schedule: Q01DX001 (ip), vehicle: saline 111 % of control

CC(=O)Nc1ccncn1
inactive: dose: 25.0 mg/kg/injection, schedule: Q04DX002 (ip), vehicle: saline with Tween-80 97 % of control | dose: 50.0 mg/kg/injection, schedule: Q04DX002 (ip), vehicle: saline with Tween-80 100 % of control

CCOc1ccccc1C(=O)OC(CN(CC)CC)c1ccccc1 (stereo unspecified)
inactive: dose: 100.0 mg/kg/injection, schedule: Q04DX002 (ip), vehicle: saline 95 % of control | dose: 200.0 mg/kg/injection, schedule: Q04DX002 (ip), vehicle: saline 95 % of control
